In brackets after ≈: the same amount, converted by molar mass. Where two headings read alike, the source gives them in different places.
What was measured:
[1] = Example 2: ocular tissue pharmacokinetics after topical dose, decreasing dose volume at same total amount of drug; type: in vivo, New Zealand Composite pigmented rabbits; conditions: for DNAUC / AUC(0-t) / Cmax / Tmax: topical ocular; for exposure (absolute Cmax and AUC): constant 10 μg dose, varying volume/concentration
Method: This study was carried out using a non-crossover design involving a total of 84 New Zealand Composite pigmented rabbits arbitrarily divided into 3 groups of 28 rabbits each. Three compositions were prepared as aqueous suspensions substantially as disclosed above comprising 1, 0.33, and 0.1 mg/mL BOL-303242-X, respectively. Each composition also contained 100 mg/mL PEG 3350 and 10 mg/mL Tween® 80. The compositions were shipped to the test site as a ready-to-use suspension.
The test compositions were administered so as to achieve 10-μg topical dosed drug amount in each eye of all the study animals. The concentration of the composition and the instillation volume were varied between the three study groups to keep the dosed drug amount constant. Animals in Group 1 received 10 μL/eye of the 1.0 mg/mL composition; animals comprising Groups 2 and 3 received 30 μL/eye of the 0.33 mg/mL composition and 100 μL/eye of the 0.1 mg/mL composition, respectively.
At predetermined time intervals after dosing, rabbits (four per collection time) were euthanized after anesthetization and the eyes enucleated and dissected. Tear, aqueous humor, conjunctiva, cornea, and iris/ciliary body samples were collected from both eyes of each animal and stored frozen until being shipped on dry ice to the analytical laboratory. Samples were collected at 0.083, 0.25, 0.5, 1, 2, 4, and 6 hours after dosing. BOL-303242-X concentrations in the above tissues and matrices were determined by LC/MS/MS. For the purpose of calculating mean concentrations, a value of ½ the LLQ was assigned to all samples with concentrations below the LLQ (BLQ). In addition, any sample with a measured concentration that was more than 10-fold higher than the median concentration in the respective sample pool was considered an outlier, and was not included in any calculations. Similarly, concentrations that were 10-fold lower than the median value and below the LLQ were also considered to be outliers. The number of study samples that were determined to be outliers using the above criteria for each tissue/matrix in this study was: tears=14/144; conjunctiva=3/144; cornea=1/144; aqueous humor 2/144 and iris=4/144 samples.
Pharmacokinetic analysis of the composite concentration-versus-time data was performed using non-compartmental methods (WinNonlin version 5.2). Due to the destructive nature of the sampling regimen employed in this study, average composite data were used in the pharmacokinetic analysis.

[2] = Solubility in water of compound having Formula III; type: physicochemical; conditions: pH 7, water, pH of about 7
[3] = Conjunctiva, 10 μL/eye of 1 mg/mL (10 μg)
[4] = Conjunctiva, 30 μL/eye of 0.33 mg/mL (10 μg)
[5] = Conjunctiva, 100 μL/eye of 0.1 mg/mL (10 μg)
[6] = Cornea, 10 μL/eye of 1 mg/mL (10 μg)
[7] = Cornea, 30 μL/eye of 0.33 mg/mL (10 μg)
[8] = Cornea, 100 μL/eye of 0.1 mg/mL (10 μg)
[9] = Iris/Ciliary Body, 30 μL/eye of 0.33 mg/mL (10 μg)
[10] = Iris/Ciliary Body, 100 μL/eye of 0.1 mg/mL (10 μg)
[11] = New Zealand Composite pigmented, rabbit, aqueous humor, topical or ocular, 10 ug, 10 μL/eye of 1 mg/mL (10 μg)
[12] = New Zealand Composite pigmented, rabbit, aqueous humor, topical or ocular, 10 ug, 30 μL/eye of 0.33 mg/mL (10 μg)
[13] = New Zealand Composite pigmented, rabbit, aqueous humor, topical or ocular, 10 ug, 100 μL/eye of 0.1 mg/mL (10 μg)
[14] = New Zealand Composite pigmented, rabbit, conjunctiva, topical or ocular, 10 ug, 10 μL/eye of 1 mg/mL (10 μg)
[15] = New Zealand Composite pigmented, rabbit, conjunctiva, topical or ocular, 10 ug, 30 μL/eye of 0.33 mg/mL (10 μg)
[16] = New Zealand Composite pigmented, rabbit, conjunctiva, topical or ocular, 10 ug, 100 μL/eye of 0.1 mg/mL (10 μg)
[17] = New Zealand Composite pigmented, rabbit, cornea, topical or ocular, 10 ug, 10 μL/eye of 1 mg/mL (10 μg)
[18] = New Zealand Composite pigmented, rabbit, cornea, topical or ocular, 10 ug, 30 μL/eye of 0.33 mg/mL (10 μg)
[19] = New Zealand Composite pigmented, rabbit, cornea, topical or ocular, 10 ug, 100 μL/eye of 0.1 mg/mL (10 μg)
[20] = New Zealand Composite pigmented, rabbit, iris/ciliary body, topical or ocular, 10 ug, 30 μL/eye of 0.33 mg/mL (10 μg)
[21] = New Zealand Composite pigmented, rabbit, iris/ciliary body, topical or ocular, 10 ug, 100 μL/eye of 0.1 mg/mL (10 μg)
[22] = New Zealand Composite pigmented, rabbit, tears, topical or ocular, 10 ug, 10 μL/eye of 1 mg/mL (10 μg)
[23] = New Zealand Composite pigmented, rabbit, tears, topical or ocular, 10 ug, 30 μL/eye of 0.33 mg/mL (10 μg)
[24] = New Zealand Composite pigmented, rabbit, tears, topical or ocular, 10 ug, 100 μL/eye of 0.1 mg/mL (10 μg)
[25] = Tears, 10 μL/eye of 1 mg/mL (10 μg)
[26] = Tears, 30 μL/eye of 0.33 mg/mL (10 μg)
[27] = Tears, 100 μL/eye of 0.1 mg/mL (10 μg)

- DNAUC ([1]; Aqueous Humor, 10 μL/eye of 1 mg/mL (10 μg)): 0.800 ng*hr/g ÷ μg dose
- DNAUC ([1]; Aqueous Humor, 30 μL/eye of 0.33 mg/mL (10 μg)): 0.300 ng*hr/g ÷ μg dose
- DNAUC ([1]; Aqueous Humor, 100 μL/eye of 0.1 mg/mL (10 μg)): 0.700 ng*hr/g ÷ μg dose
- AUC(0-t) [1, 3]: 0.742 µg·h/g
- DNAUC [1, 3]: 74.2 ng*hr/g ÷ μg dose
- AUC(0-t) [1, 4]: 0.575 µg·h/g
- DNAUC [1, 4]: 57.5 ng*hr/g ÷ μg dose
- AUC(0-t) [1, 5]: 0.212 µg·h/g
- DNAUC [1, 5]: 21.2 ng*hr/g ÷ μg dose
- AUC(0-t) [1, 6]: 1.01 µg·h/g
- DNAUC [1, 6]: 101 ng*hr/g ÷ μg dose
- AUC(0-t) [1, 7]: 1.02 µg·h/g
- DNAUC [1, 7]: 102 ng*hr/g ÷ μg dose
- AUC(0-t) [1, 8]: 0.745 µg·h/g
- DNAUC [1, 8]: 74.5 ng*hr/g ÷ μg dose
- DNAUC ([1]; Iris/Ciliary Body, 10 μL/eye of 1 mg/mL (10 μg)): 27.3 ng*hr/g ÷ μg dose
- AUC(0-t) ([1]; Iris/Ciliary Body, 10 μL/eye of 1 mg/mL (10 μg), heavily influenced by 2 animals at 2 hour): 0.273 µg·h/g
- AUC(0-t) [1, 9]: 0.0206 µg·h/g
- DNAUC [1, 9]: 2.06 ng*hr/g ÷ μg dose
- AUC(0-t) [1, 10]: 0.0186 µg·h/g
- DNAUC [1, 10]: 1.86 ng*hr/g ÷ μg dose
- AUC(0-t) ([1]; New Zealand Composite pigmented, rabbit, aqueous humor, topical or ocular, 10 ug, Aqueous Humor, 10 μL/eye of 1 mg/mL (10 μg), read-out: AUC(0-t)): 8 ng·h/mL
- AUC(0-t) ([1]; New Zealand Composite pigmented, rabbit, aqueous humor, topical or ocular, 10 ug, Aqueous Humor, 30 μL/eye of 0.33 mg/mL (10 μg), read-out: AUC(0-t)): 3 ng·h/mL
- AUC(0-t) ([1]; New Zealand Composite pigmented, rabbit, aqueous humor, topical or ocular, 10 ug, Aqueous Humor, 100 μL/eye of 0.1 mg/mL (10 μg), read-out: AUC(0-t)): 7 ng·h/mL
- Cmax [1, 11]: 0.17 ng/mL
- Tmax [1, 11]: 120 min
- Cmax [1, 12]: 0.188 ng/mL
- Tmax [1, 12]: 120 min
- Cmax [1, 13]: 0.286 ng/mL
- Tmax [1, 13]: 120 min
- Cmax [1, 14]: 399 ± 100 ng/g
- Tmax [1, 14]: 4.98 min
- Cmax [1, 15]: 450 ± 269 ng/g
- Tmax [1, 15]: 15 min
- Cmax [1, 16]: 168 ± 101 ng/g
- Tmax [1, 16]: 15 min
- Cmax [1, 17]: 527 ± 213 ng/g
- Tmax [1, 17]: 30 min
- Cmax [1, 18]: 592 ± 297 ng/g
- Tmax [1, 18]: 4.98 min
- Cmax [1, 19]: 452 ± 129 ng/g
- Tmax [1, 19]: 15 min
- Tmax ([1]; New Zealand Composite pigmented, rabbit, iris/ciliary body, topical or ocular, 10 ug, 10 μL/eye of 1 mg/mL (10 μg)): 120 min
- Cmax ([1]; New Zealand Composite pigmented, rabbit, iris/ciliary body, topical or ocular, 10 ug, 10 μL/eye of 1 mg/mL (10 μg), heavily influenced by 2 animals at 2 hour): 262 ng/g
- Cmax [1, 20]: 41.9 ± 37.8 ng/g
- Tmax [1, 20]: 4.98 min
- Cmax [1, 21]: 5.92 ± 7.26 ng/g
- Tmax [1, 21]: 60 min
- Cmax [1, 22]: 247000 ng/g
- Tmax [1, 22]: 15 min
- Cmax [1, 23]: 32000 ng/g
- Tmax [1, 23]: 4.98 min
- Cmax [1, 24]: 7170 ng/g
- Tmax [1, 24]: 15 min
- AUC(0-t) [1, 25]: 60.2 µg·h/g
- DNAUC [1, 25]: 6020 ng*hr/g ÷ μg dose
- AUC(0-t) [1, 26]: 18.2 µg·h/g
- DNAUC [1, 26]: 1820 ng*hr/g ÷ μg dose
- AUC(0-t) [1, 27]: 7.74 µg·h/g
- DNAUC [1, 27]: 774 ng*hr/g ÷ μg dose
- exposure (absolute Cmax and AUC) ([1]; cornea, iris/ciliary body and aqueous humor): remained relatively constant
- ocular bioavailability ([1]; dose volume decreased while drug concentration in the formulation increased proportionally): increases
- solubility [2]: ~0.2 µg/mL (≈ 0.432 µM)
Structure (SMILES): Cc1ccc2c(NCC(O)(CC(C)(C)c3cc(F)cc4c3OCC4)C(F)(F)F)cccc2n1 (stereo not shown) [BOL-303242-X]
- exposure (absolute Cmax and AUC) ([1]; tears): increases as the concentration of the drug in the dose volume increases
